In patent US7897620B2, “Methods of using anti-inflammatory compounds” (Cambridge Enterprise Limited, priority 2007, dated 2011):
Marks after values point to notes of the source that are not given here.

How the values were obtained:
[1] = Pharmacokinetics following a single dose in rat (LC-MS/MS of blood, one-compartment model); type: in vivo; conditions: for AUC(0-inf): single oral dose 3 mg/kg in 1% CMC, read-out: Exposure (AUC 0->infinity) (converted); for clearance: read-out: Clearance; for bioavailability: po, 3 mg/kg
Description: Compounds were administered as a single dose (either 1 mg/kg bodyweight in 5% DMSO via the intravenous route or 3 mg/kg in 1% carboxymethylcellulose via the oral route) to three adult rats (using different rats for each compound and each route of administration).
Blood was then sampled at various time points (including just prior to dose administration) out to 24 hrs post dose, and the level of the various compounds was assessed using a validated LC-MS/MS assay. Briefly, 3-5 μl of the deproteinised sample was applied to a Waters Atlantis (C18 20×2.1 mm, 3 μm bead size) reverse phase chromatography column equilibrated in 0.1% formic acid in 95:5 water:actetonitrile. Over 3.5 minutes bound material was gradient eluted reaching 0.1% formic acid in 5:95 water:acetonitrile, followed by a step gradient back to 0.1% formic acid in 95:5 water:acetonitrile. The column eluent was then directed to an Applied Biosystems API 4000/3200 QTrap MS/MS mass spectrometer, with a Turbolonspray™ ion source operating in positive ion mode. The interface temperature was set at 650° C., with a 40 ms dwell time for each MRM transition, monitoring the following ions:
The internal standard in each determination was the related compound (S)-3-(2′,2′-dimethylpropanoylamino)-caprolactam, which was spiked into the sample prior to deproteinization. The lower limit of quantitation (LLOQ) for this assay was 2.4 ng/ml for each compound except (I′), where it was 38.1 ng/ml.
Following LC-MS/MS analysis of each collected sample, the pharmacokinetic disposition of the compound was modelled using Kinetica software, a well known software package for such applications.

[2] = tested on: S. Typhinurium (TA 102, TA98 and TA 100); assay: AMES test, revertant colony formation; type: cell-based; conditions: for Revertant colony formation TA98 + S9: TA98 with S9, top dose 5 mg/ml; for Revertant colony formation TA98: TA98 without S9, top dose 5 mg/ml; for Revertant colony formation TA100 + S9: TA100 with S9 rat liver microsomal system, top dose 5 mg/ml; for Revertant colony formation TA100: TA100 without S9, top dose 5 mg/ml; for Revertant colony formation TA102 + S9: TA102 with S9, top dose 5 mg/ml; for Revertant colony formation TA102: TA102 without S9, top dose 5 mg/ml
Description: The five compounds were subjected to a standard AMES test to assess likely genotoxicity. Three His-auxotroph strains of S. Typhinurium (TA 102, TA98 and TA 100) were treated with each of the compounds at 5 concentrations (up to 5 mg/ml) in the presence and absence of S9 rat liver microsomal metabolising system. The number of revertant colonies was then determined by plating on trace-His minimal media.

[3] = Pharmacokinetics following a single dose in dog (crossover iv / per os); type: in vivo; conditions: plasma; for Vd: read-out: Vss
Description: In a separate experiment, (I′) was compared with the second best compound (V) for pharmacokinetic parameters in a different (non-rodent) species, the dog. Single doses (1 mg/kg in 5% DMSO intravenously or 3 mg/kg in 1% CMC per os) were administered to a single dog for each compound in a simple crossover design with 1 week washout between the two routes of administration.

[4] = blood, rat, averaged across three rats
[5] = rat, blood, iv, 1 mg/kg, rat, one-compartment model, averaged across three rats
[6] = rat, one-compartment model, averaged across three rats
[7] = blood, Rat, Intravenous PK (1 mg/kg), read-out: Half-life
[8] = blood, Rat, Oral PK (3 mg/kg), read-out: Half-life
[9] = plasma, iv, 1 mg/kg, rat, one-compartment model, averaged across three rats, read-out: t½ (mins) dominant plasma half-life
[10] = rat, blood, iv, 1 mg/kg, Rat, Intravenous PK (1 mg/kg)
[11] = rat, blood, iv, 1 mg/kg, Rat, Intravenous PK (1 mg/kg), read-out: Vss
[12] = rat, blood, iv, 1 mg/kg, rat, one-compartment model, averaged across three rats, read-out: Vss (L/kg) volume of distribution
[13] = rat, blood, Rat, Oral PK (3 mg/kg), read-out: Bioavailability (%)
[14] = rat, blood, rat, 1 mg/kg iv in 5% DMSO and 3 mg/kg oral in 1% CMC, one-compartment model, averaged across three rats, read-out: F (%) oral bioavailability

For `O=C1NCCCC[C@@H]1NC(=O)C12CC3CC(CC(C3)C1)C2` [(II), 3-(adamantane-1-carbonylamino)-caprolactam], the AUC(0-inf) [1, 4] was 7.95 ng·h/mL, the “F (%) oral bioavailability” value ([1]; rat, 1 mg/kg iv in 5% DMSO and 3 mg/kg oral in 1% CMC, one-compartment model, averaged across three rats) was under 1% and the clearance [1, 5] was 84 mL/min/kg. The “Vss (L/kg) volume of distribution” value [1, 6] was 0.8 L/kg, the “t½ (mins) dominant plasma half-life” value [1, 6] was 16 min and the “Revertant colony formation TA98 + S9” value [2] was 0.60*. The “Revertant colony formation TA98” value [2] was 0.58*, the “Revertant colony formation TA100 + S9” value [2] was 0.73 and the “Revertant colony formation TA100” value [2] was 0.59*. The “Revertant colony formation TA102 + S9” value [2] was 0.93 and the “Revertant colony formation TA102” value [2] was 0.50*.
With `CC(C)(C)C(=O)N[C@H]1CCCNC1=O` [Compound (I′), 3-(2′,2′-dimethylpropanoylamino)-tetrahydropyridin-2-one] the half-life [1, 7] was 196 min, the AUC ([1]; blood, Rat, Oral PK (3 mg/kg)) was 15600 ng·h/mL and the Tmax ([1]; blood, Rat, Oral PK (3 mg/kg)) was 0.25 to 2 h. The half-life [1, 8] was 226 min, the AUC(0-inf) [1, 4] was 15600 ng·h/mL and the half-life ([1]; plasma, intravenous, 1 mg/kg, rat, read-out: plasma half-life) was over 180 min. The half-life [1, 9] was 196 min, the “clearance, times lower than for the other lactam BSCIs” value ([1]; rat) was “more than 10 fold” and the clearance ([1]; rat, blood, intravenous, 1 mg/kg, rat, one-compartment model, averaged across three rats) was 2.6 mL/min/kg. It also gave a clearance [1, 10] of 2.6 mL/min/kg, a Vd [1, 11] of 0.7 L/kg and a Vd [1, 12] of 0.7 L/kg. For the same compound, the bioavailability [1, 13] was 81%, the bioavailability [1, 14] was 69% and the “exposure relative to the next best compound (V)” value ([1]; rat, oral) was about 20 fold. The “plasma half-life, fold longer” value ([1]; rat, versus the other compounds examined) was 10 fold, the clearance ([3]; Intravenous PK (1 mg/kg)) was 1.9 mL/min/kg and the half-life ([3]; Intravenous PK (1 mg/kg)) was 3.93 h. For the same compound, the Vd ([3]; Intravenous PK (1 mg/kg)) was 0.6 L/kg, the AUC ([3]; Oral PK (3 mg/kg)) was 20200 ng·h/mL and the Tmax ([3]; Oral PK (3 mg/kg)) was 1 h. The bioavailability ([3]; Oral PK (3 mg/kg)) was 75%, the half-life ([3]; Oral PK (3 mg/kg)) was 3.62 h and the “Revertant colony formation TA98 + S9” value [2] was 1.23. The “Revertant colony formation TA98” value [2] was 2.00**, the “Revertant colony formation TA100 + S9” value [2] was 0.95 and the “Revertant colony formation TA100” value [2] was 0.97. For the same compound, the “Revertant colony formation TA102 + S9” value [2] was 0.93 and the “Revertant colony formation TA102” value [2] was 0.82.
With `O=C1NCCCC[C@@H]1NC(=O)C12CC3CC(CC(O)(C3)C1)C2` [(V), 3-(3′-hydroxyadamantyl-1-carbonylamino)-caprolactam] the half-life [1, 7] was 24 min, the AUC ([1]; blood, Rat, Oral PK (3 mg/kg)) was 952 ng·h/mL and the Tmax ([1]; blood, Rat, Oral PK (3 mg/kg)) was 0.25 h. The half-life [1, 8] was 24 min, the AUC(0-inf) [1, 4] was 952 ng·h/mL and the half-life [1, 9] was 24 min. The clearance [1, 10] was 33 mL/min/kg, the Vd [1, 11] was 0.8 L/kg and the clearance [1, 5] was 31 mL/min/kg. For the same compound, the Vd [1, 12] was 1.4 L/kg, the bioavailability [1, 13] was 59% and the bioavailability [1, 14] was 59%. The clearance ([3]; Intravenous PK (1 mg/kg)) was 7.4 mL/min/kg, the half-life ([3]; Intravenous PK (1 mg/kg)) was 1.1 h and the Vd ([3]; Intravenous PK (1 mg/kg)) was 0.6 L/kg. The AUC ([3]; Oral PK (3 mg/kg)) was 4000 ng·h/mL, the Tmax ([3]; Oral PK (3 mg/kg)) was 1 h and the bioavailability ([3]; Oral PK (3 mg/kg)) was 59%. For the same compound, the half-life ([3]; Oral PK (3 mg/kg)) was 1.12 h, the “Revertant colony formation TA98 + S9” value [2] was 0.91 and the “Revertant colony formation TA98” value [2] was 0.96. The “Revertant colony formation TA100 + S9” value [2] was 0.88, the “Revertant colony formation TA100” value [2] was 0.78 and the “Revertant colony formation TA102 + S9” value [2] was 1.09. The “Revertant colony formation TA102” value [2] was 0.93.
With `CC(C)(C)S(=O)(=O)N[C@H]1CCCCNC1=O` [(IV), 3-(1′,1′-dimethylethylsulfonylamino)-caprolactam] the AUC(0-inf) [1, 4] was 690 ng·h/mL, the half-life [1, 9] was 19 min and the clearance [1, 5] was 32 mL/min/kg. The Vd [1, 12] was 0.6 L/kg, the bioavailability [1, 14] was 45% and the “Revertant colony formation TA98 + S9” value [2] was 0.90. For the same compound, the “Revertant colony formation TA98” value [2] was 0.82, the “Revertant colony formation TA100 + S9” value [2] was 0.90 and the “Revertant colony formation TA100” value [2] was 0.89. The “Revertant colony formation TA102 + S9” value [2] was 0.88 and the “Revertant colony formation TA102” value [2] was 0.85.
